Assay results as given in US20130005759A1, “SMALL MOLECULE MODIFIERS OF MICRORNA MIR-122” (North Carolina State University, priority 2010, published 2013).

Legend:
[1] = system: miR-122; assay: psiCHECK-miR122 dual luciferase reporter assay in Huh7 cells; type: cell-based, human; settings: for EC50: Homo sapiens, Huh-7, read-out: EC50 (miR-122 inhibitors, luciferase dose response); for Renilla luciferase expression with psiCHECK-miR122 (in words): Huh7, 10 μM (antagomir transfected), normalized to DMSO; for increase in the relative luciferase signal / relative luciferase units (RLU) normalized to a DMSO control: Huh7, psiCHECK-miR122, 10 μM; for increase in the relative luciferase signal: 48 hours; for relative luciferase units (RLU) normalized to a DMSO control: mean ± SD of three independent assays
Description: A miRNA small molecule modifier screen for miR-122 was developed based on the psiCHECK-2 (Promega) reporter plasmid (FIG. 9). This construct expresses both Renilla luciferase as well as firefly luciferase, allowing for the normalization of the signal to account for differential cellular viability and variability in transfection efficiency. The miR-122 target sequence was inserted downstream of the Renilla luciferase gene, between the PmeI and SgfI restriction sites. In another aspect of the invention, plasmids expressing luciferase or another reporter gene such as for example, fluorescent reporters (GFP and variants thereof, DsRed, etc.) or beta-galactosidase can be used to screen for small molecule modifiers of miR-122. The mi-122 target sequence may be upstream or downstream of the reporter gene. Multiple miR-122 target sites can also be inserted into or be present in the plasmid.
The presence of mature miR-122 will lead to a decrease in the Renilla luciferase signal (FIG. 1a). The ability to detect endogenous miR-122 was validated by transfecting the generated psiCHECK-miR122 construct into Huh7 and HeLa cells. After 48 hour incubation, the cells were assayed using a Dual Luciferase Assay Kit (Promega). In another embodiment, the cells can be incubated for about 24-96 hours. The Dual Luciferase Assay Kit provides a means to measure the amount of the luciferases by generating a luminescent signal. Using this assay the luminescence from the firefly luciferase reaction may be quenched while the luminescent reaction of Renilla luciferase can be activated. Other assays and procedures that can determine the amount of the one or more reporter genes or miR-122 expression, activity or function can be used. An example of another assay is Dual-Glo Assay (Promega).
The psiCHECK-miR122 vector was then employed in a small molecule screen in Huh7 cells to discover modifiers of miR-122 function. Other cells that express miR-122 such as HepG2 and Hep3B can be used in addition to or instead of Huh7 cells. An increase in the relative Renilla luciferase signal indicates a miR-122 inhibitor, while a reduction in the luciferase signal indicates a miR-122 activator. A genus of compounds that may have activity as modifiers of miR122 function are the Diversity Set II (1364 compounds) from the NCI Developmental Therapeutics Program was screened using Huh7 cells containing the psiCHECK-miR122 reporter. Cells were exposed to the small molecules and the relative luciferase signal was measured after 48 hours using a Dual Luciferase Assay Kit (Promega). In another embodiment the cells can be exposed to the small molecules for about 24-96 hours. As explained above, other assays and procedures that can determine the amount of the one or more reporter genes or miR-122 expression, activity or function can be used.
The analogs were screened for activity using the previously described miR-122 assay. All cells were treated with 10 μM of a compound and experiments were performed in triplicate to ensure statistical validity. The data was normalized to a 1% DMSO control and is reported in relative luciferase units (RLU). The standard deviation was calculated from three independent assays. Some analogs of miR-122 inhibitor compound 1 are:
Huh7 and HeLa cells were transfected at approximately 60% confluency with either the psiCHECK-Control plasmid (the original psiCHECK-2 plasmid containing no known miRNA binding site) or the psiCHECK-miR122 plasmid (0.5 μg) using X-tremGENE transfection reagent (3:2 reagent/DNA ratio; Roche) in Opti-Mem media (Invitrogen). All transfections were performed in triplicate for statistical analysis. The cells were incubated at 37° C. for 4 hours followed by the replacement of transfection media with standard DMEM growth media. After 48 hours of incubation the media was removed, cells were lysed and assayed with a Dual Luciferase Assay Kit (Promega) using a Wallac VICTOR^3V luminometer with a measurement time of 1 s and a delay time of 2 s. […]

[2] = system: psiCHECK-control vector (no miRNA target sequence); assay: psiCHECK-control vector luciferase counter-assay in Huh7 cells; type: cell-based, human; settings: Huh7, 10 μM
Description: (FIG. 3). […] The relative luciferase units were normalized to the corresponding DMSO signals. […] This confirms that compound 2 and the antagomir have similar effects on the reduction of miR-122 function in Huh7 cells.
Compounds which elicited greater than a 5-fold increase of the relative luciferase units signal compared to the DMSO control were then re-assayed in triplicate to confirm the validity of the hit compound. Upon secondary validation of miR-122 inhibition, identical assays were repeated with the psiCHECK-Control vector to ascertain that the effect is specific to the miR-122 pathway, and not simply affecting the Renilla gene. In order to assess the relative degree of miR-122 inhibition, Huh7 cells were also co-transfected with either the psiCHECK-Control plasmid or the psiCHECK-miR122 plasmid (0.5 μg) and a miR-122 2′-OMe PS antagomir (50 pmol; 5′ […] (SEQ ID NO:4) 3′; IDT DNA)(2) using the X-tremGENE transfection reagent (Roche Applied Science, 4:2 reagent/DNA ratio). The transfection media was replaced with standard DMEM growth media after 4 hours and the cells were incubated for 48 hours prior to analysis with a Dual Luciferase Assay Kit (FIG. 3).

[3] = system: miR-21; assay: miR-21 luciferase reporter assay in HeLa-miR-21-Luc cells; type: cell-based; settings: 10 μM, 48 hours
Experimental: Using the previously described HeLa-miR-21-Luc cell line (a stably transfected line harboring a miR-21 binding sequence in the 3′ UTR of a firefly luciferase gene),(9) cells were grown to 80% confluency (DMEM) and treated with either DMSO, the previously reported miR-21 inhibitor, or compounds 1 and 2 at 10 μM (1% DMSO final concentration). The cells were incubated for 48 hours at 37° C. (5% CO2) and then assayed with a Bright-Glo Luciferase Kit (Promega) and analyzed using a Wallac VICTOR^3V luminometer with a measurement time of 1 s and a delay time of 2 s (FIG. 4).

Row | Compound | EC50 [1] | Renilla luciferase expression with psiCHECK-miR122 (in words) [1] | increase in the relative luciferase signal [1] | relative luciferase units (RLU) normalized to a DMSO control [1] | normalized Renilla luciferase signal with psiCHECK-control vector [2] | activity in miRNA-21 reporter (luciferase signal) [3]
1 | O=C(Nc1ccc2ccccc2c1)c1ccc(Cl)cc1Cl [Compound 1] | 7.73 ± 0.38 µM | significant increase | 773±38% | 7.73±0.38 RLU | no statistically significant alteration | no activity was found
2 | O=S(=O)(c1ccc2c(c1)CCCN2)N1CCC[C@H]2CCCC[C@@H]21 [Compound 2] | 12.5 ± 1.25 µM | significant increase | 1251±125% | 12.51±1.25 RLU | no statistically significant alteration | no activity was found
